What was measured:
Assay type in all cases: cell-based
hFP = molecular target: T1, hFP (Homo sapiens, UniProt P43088); test: FLIPR calcium signal study, hFP; settings: HEK-293(EBNA) cells, recombinant human receptor, read-out: FUNCTIONAL DATA (EC50 nm) HFP
T1 construct: expressed in transfected cells; host or cells: HEK-293(EBNA)
Experimental: (§1) HEK-293(EBNA) cells, stably expressing one type or subtype of recombinant human prostaglandin receptors (prostaglandin receptors expressed: hDP/Gqs5; hEP1; hEP2/Gqs5; hEP3A/Gqi5; hEP4/Gqs5; hFP; hIP; hTP), were cultured in 100 mm culture dishes in high-glucose DMEM medium containing 10% fetal bovine serum, 2 mM 1-glutamine, 250 μg/ml geneticin (G418) and 200 μg/ml hygromycin B as selection markers, and 100 units/ml penicillin G, 100 μg/ml streptomycin and 0.25 μg/ml amphotericin B.
(§2) Cells were seeded at a density of 5×10^4 cells per well in Biocoat® Poly-D-lysine-coated black-wall, clear-bottom 96-well plates (Becton-Dickinson) and allowed to attach overnight in an incubator at 37° C. Cells were then washed two times with HBSS-HEPES buffer (Hanks Balanced Salt Solution without bicarbonate and phenol red, 20 mM HEPES, pH 7.4) using a Denley Cellwash plate washer (Labsystems). […]
(§3) Cells were excited with an Argon laser at 488 nm, and emission was measured through a 510-570 nm bandwidth emission filter (FLIPR™, Molecular Devices, Sunnyvale, Calif.). […] The peak increase in fluorescence intensity was recorded for each well. […] The peak fluorescence change in each drug-containing well was then expressed relative to the controls. […]

hEP3A/Gqi5 = molecular target: T2, hEP3A/Gqi5 (Homo sapiens, UniProt P43115); test: FLIPR calcium signal study, hEP3A/Gqi5; settings: HEK-293(EBNA) cells, recombinant human receptor, read-out: FUNCTIONAL DATA (EC50 nm) HEP3A
T2 construct: expressed in transfected cells; host or cells: HEK-293(EBNA)
T2 sequence (P43115 1-390): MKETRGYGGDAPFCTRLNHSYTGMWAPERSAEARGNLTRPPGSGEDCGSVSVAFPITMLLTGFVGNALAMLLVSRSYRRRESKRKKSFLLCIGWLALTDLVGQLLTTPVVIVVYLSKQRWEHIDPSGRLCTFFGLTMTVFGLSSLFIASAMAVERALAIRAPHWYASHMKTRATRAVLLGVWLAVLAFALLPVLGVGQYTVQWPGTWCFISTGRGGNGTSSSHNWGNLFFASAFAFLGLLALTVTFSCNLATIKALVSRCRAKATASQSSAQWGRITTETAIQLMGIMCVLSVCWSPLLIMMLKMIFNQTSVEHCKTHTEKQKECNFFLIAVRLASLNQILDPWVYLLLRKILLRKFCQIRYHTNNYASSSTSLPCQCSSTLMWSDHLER
Experimental: as §1
(§4) Cells were seeded at a density of 5×10^4 cells per well in Biocoat® Poly-D-lysine-coated black-wall, clear-bottom 96-well plates (Becton-Dickinson) and allowed to attach overnight in an incubator at 37° C. Cells were then washed two times with HBSS-HEPES buffer (Hanks Balanced Salt Solution without bicarbonate and phenol red, 20 mM HEPES, pH 7.4) using a Denley Cellwash plate washer (Labsystems). After 45 minutes of dye-loading in the dark, using the calcium-sensitive dye Fluo-4 AM at a final concentration of 2 μM, plates were washed four times with HBSS-HEPES buffer to remove excess dye leaving 100 μl in each well. Plates were re-equilibrated to 37° C. for a few minutes.
(§5) Cells were excited with an Argon laser at 488 nm, and emission was measured through a 510-570 nm bandwidth emission filter (FLIPR™, Molecular Devices, Sunnyvale, Calif.). Drug solution was added in a 50 μl volume to each well to give the desired final concentration. The peak increase in fluorescence intensity was recorded for each well. On each plate, four wells each served as negative (HBSS-HEPES buffer) and positive controls (standard agonists: BW245C (hDP); PGE2 (hEP1; hEP2/Gqs5; hEP3A/Gqi5; hEP4/Gqs5); PGF2α (hFP); carbacyclin (hIP); U-46619 (hTP), depending on receptor). The peak fluorescence change in each drug-containing well was then expressed relative to the controls.
(§6) Compounds were tested in a high-throughput (HTS) or concentration-response (CoRe) format. […]

hTP = molecular target: T3, hTP (Homo sapiens, UniProt P21731); test: FLIPR calcium signal study, hTP; settings: HEK-293(EBNA) cells, recombinant human receptor, read-out: FUNCTIONAL DATA (EC50 nm) HTP
T3 construct: expressed in transfected cells; host or cells: HEK-293(EBNA)
T3 sequence (P21731 1-343): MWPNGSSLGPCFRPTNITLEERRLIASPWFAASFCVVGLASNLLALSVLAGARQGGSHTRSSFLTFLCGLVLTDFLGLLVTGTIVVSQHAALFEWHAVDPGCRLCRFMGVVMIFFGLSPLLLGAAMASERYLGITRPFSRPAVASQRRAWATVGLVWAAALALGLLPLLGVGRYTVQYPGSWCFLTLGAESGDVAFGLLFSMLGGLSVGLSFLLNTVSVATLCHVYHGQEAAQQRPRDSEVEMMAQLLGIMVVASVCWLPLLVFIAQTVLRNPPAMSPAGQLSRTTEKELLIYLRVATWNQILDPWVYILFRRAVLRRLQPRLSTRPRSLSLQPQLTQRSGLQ
Experimental: as §1, §4, §5, §6

hEP1 = molecular target: T4, hEP1 (Homo sapiens, UniProt P34995); test: FLIPR calcium signal study, hEP1; settings: HEK-293(EBNA) cells, recombinant human receptor, read-out: FUNCTIONAL DATA (EC50 nm) HEP1
T4 construct: expressed in transfected cells; host or cells: HEK-293(EBNA)
T4 sequence (P34995 1-402): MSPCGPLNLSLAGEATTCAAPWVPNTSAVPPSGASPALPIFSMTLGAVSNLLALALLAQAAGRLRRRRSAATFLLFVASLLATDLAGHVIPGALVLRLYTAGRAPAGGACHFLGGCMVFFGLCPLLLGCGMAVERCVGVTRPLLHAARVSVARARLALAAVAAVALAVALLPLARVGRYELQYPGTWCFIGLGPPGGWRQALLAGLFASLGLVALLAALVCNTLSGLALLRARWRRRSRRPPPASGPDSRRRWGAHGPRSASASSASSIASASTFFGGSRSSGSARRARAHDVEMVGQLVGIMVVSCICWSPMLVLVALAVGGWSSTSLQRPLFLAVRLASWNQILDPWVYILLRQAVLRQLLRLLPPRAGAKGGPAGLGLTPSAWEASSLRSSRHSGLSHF
Experimental: as §1, §2, §3

hEP4/Gqs5 = molecular target: T5, hEP4/Gqs5 (Homo sapiens, UniProt P35408); test: FLIPR calcium signal study, hEP4/Gqs5; settings: HEK-293(EBNA) cells, recombinant human receptor, read-out: FUNCTIONAL DATA (EC50 nm) HEP4
T5 construct: expressed in transfected cells; host or cells: HEK-293(EBNA)
T5 sequence (P35408 whole entry): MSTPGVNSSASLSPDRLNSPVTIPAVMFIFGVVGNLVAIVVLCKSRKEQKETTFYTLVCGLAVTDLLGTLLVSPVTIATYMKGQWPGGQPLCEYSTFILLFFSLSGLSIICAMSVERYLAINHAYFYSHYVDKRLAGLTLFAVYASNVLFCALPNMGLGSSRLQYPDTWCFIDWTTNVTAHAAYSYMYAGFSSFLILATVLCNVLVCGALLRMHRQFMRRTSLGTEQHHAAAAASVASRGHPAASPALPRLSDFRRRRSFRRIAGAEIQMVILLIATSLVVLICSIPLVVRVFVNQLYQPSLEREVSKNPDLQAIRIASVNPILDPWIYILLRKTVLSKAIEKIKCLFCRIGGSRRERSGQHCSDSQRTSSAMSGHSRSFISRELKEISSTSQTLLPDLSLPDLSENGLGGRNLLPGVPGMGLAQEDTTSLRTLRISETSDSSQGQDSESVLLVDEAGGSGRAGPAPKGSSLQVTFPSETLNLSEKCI
Experimental: as §1, §2, §3

T1 sequence (P43088 whole entry): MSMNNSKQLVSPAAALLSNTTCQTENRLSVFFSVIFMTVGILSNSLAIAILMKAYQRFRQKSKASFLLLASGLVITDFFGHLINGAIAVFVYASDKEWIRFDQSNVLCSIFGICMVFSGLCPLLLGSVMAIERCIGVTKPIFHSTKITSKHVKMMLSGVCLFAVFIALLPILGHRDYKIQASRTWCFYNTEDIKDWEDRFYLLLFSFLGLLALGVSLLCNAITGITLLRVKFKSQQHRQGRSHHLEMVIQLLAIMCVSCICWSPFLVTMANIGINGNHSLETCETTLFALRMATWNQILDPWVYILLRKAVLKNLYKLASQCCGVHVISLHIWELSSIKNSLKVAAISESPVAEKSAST

Row | EC50 (hFP) | EC50 (hEP3A/Gqi5) | EC50 (hTP) | EC50 (hEP1) | EC50 (hEP4/Gqs5) | SMILES
1 | 2070 nM | > 100 µM | 1870 nM | – | – | COC(=O)CCC/C=C\C[C@H]1C(O)CC[C@@H]1/C=C/[C@@H](O)CCc1cc(Br)c(C)s1 (single isomer, unassigned)
2 | – | 0.793 µM | 96 nM | > 100 µM | > 100000 nM | Cc1sc(CC[C@H](O)/C=C/[C@H]2CCC(O)[C@@H]2C/C=C\CCCC(=O)O)cc1Br (single isomer, unassigned) [drawing 39]
3 | > 100000 nM | > 100 µM | > 100000 nM | – | 832 nM | Cc1sc(CC[C@H](O)/C=C/[C@H]2CCC(O)[C@@H]2C/C=C\CCCC(=O)O)cc1Br (single isomer, unassigned) [drawing 40]

From patent US8557860B2, “Cyclopentane heptan(ENE)OIC acid, 2-heteroarylalkenyl derivatives as therapeutic agents” (Allergan, Inc., priority 2004, dated 2013)
